According to patent US11299485B2, “Thiophene derivative and use thereof” (FUJIMOTO CO., LTD., priority 2018, dated 2022):

Assays:
Assay type in all cases: cell-based
[1] = test system: Pfeiffer cells; assay: Human diffuse large B-cell lymphoma cell line Pfeiffer proliferation suppression test; conditions: 144 h, compound 10 μM, 3 days + re-plating with compound 3 days, WST-8, read-out: cell survival rate (% of control) Pfeiffer
From the text: Example 52: Human Diffuse Large B-Cell Lymphoma Cell Line Pfeiffer Proliferation Suppression Test
(§1) Pfeiffer cells (ATCC, CRL-2632) were suspended in medium B, and diluted as appropriate with 0.4% trypan blue solution (Sigma-Aldrich Co. LLC.). The number of viable cells was counted with a hemocytometer (Funakoshi Co., Ltd.). A cell suspension obtained by diluting with medium B such that the value obtained was 1.3×10^5 cells/mL was dispensed into a Falcon 96 well flat bottom plate (Corning Incorporated) at 75 μL/well, and culture was started at 37° C. under 5% CO2 stream. The next day, a solution obtained by diluting 4 mM DMSO solution of the test compound 100-fold with medium B was added by 25 μL to each well (final concentration of test compound 10 μM). 25 μL of a solution obtained by diluting DMSO 100-fold with medium B was added to the control well. After culturing at 37° C. in a 5% CO2 stream for 3 days, the cell culture medium was uniformly suspended with a multi channel pipette, 14 μL per well was transferred into another new Falcon 96 well flat bottom plate. A solution obtained by diluting 4 mM DMSO solution of the same test compound as the first time 400-fold with medium B was added by 86 μL to a total amount of 100 μL (final concentration of test compound 10 μM). After culturing at 37° C. in a 5% CO2 stream for 3 days, the cell proliferation activity was measured according to the instruction manual attached to WST-8 Kit (KISHIDA CHEMICAL Co., Ltd.).

[2] = test system: REC-1 cells; assay: Human mantle cell lymphoma cell line REC-1 proliferation suppression test; conditions: Rec1, 72 h, compound 10 μM, 3 days, WST-8, read-out: cell survival rate (% of control) REC-1
Method: Example 53: Human Mantle Cell Lymphoma Cell Line REC-1 Proliferation Suppression Test
as §1, with “REC-1” for “Pfeiffer”, “CRL-3004)” for “CRL-2632)”, “cell” for “cell culture medium was uniformly suspended with a multi channel pipette, 14 μL per well was transferred into another new Falcon 96 well flat bottom plate. A solution obtained by diluting 4 mM DMSO solution of the same test compound as the first time 400-fold with medium B was added by 86 μL to a total amount of 100 μL (final concentration of test compound 10 μM). After culturing at 37° C. in a 5% CO2 stream for 3 days, the cell”

[3] = test system: human peripheral blood mononuclear cells (PBMC); assay: Cytotoxicity test using human peripheral blood mononuclear cells (PBMC); conditions: compound 10 μg/mL, LPS, 24 hr, WST-1 or WST-8
Method: Example 56: Cytotoxicity Test Using Human Peripheral Blood Mononuclear Cells (PBMC)
Peripheral blood of a healthy adult was collected in a Venoject II vacuum blood collection tube (Terumo, containing EDTA/2Na), and then diluted two-fold with an equal volume of OTSUKA NORMAL SALINE (Otsuka Pharmaceutical Co., Ltd.). The diluted blood was mixed with Lymphoprep (AXIS-SHIELD) in half the volume of the diluted blood, dispensed into a 15 mL conical tube, and centrifuged at room temperature for 20 min (2,100 rpm). The mononuclear cells accumulated at the interface between Lymphoprep and plasma was transferred to a 50 mL conical tube, diluted with OTSUKA NORMAL SALINE, and the mononuclear cells suspension was centrifuged at room temperature for 10 min (1,150 rpm) and then the supernatant was removed. The mononuclear cells fraction obtained as a precipitate was suspended in an appropriate amount of medium A, and diluted as appropriate with 0.4% trypan blue solution (Sigma-Aldrich Co. LLC.). The number of viable cells was counted with a hemocytometer (ERMA INC.). It was diluted with medium A such that the value obtained was 5×10^5 cells/mL. On the other hand, 37.5 μL of medium A, 2.5 μL of 0.4 mg/mL test compound solution (DMSO solution 10-fold diluted with medium A), and 10 μL of 10 μg/mL lipopolysaccharide (Sigma-Aldrich Co. LLC.) solution (diluted with medium A) were each added in advance to the same well of a Falcon 96-well flat bottom plate (Corning Incorporated), and the above-mentioned cell suspension was dispensed at 50 μL/well (final concentration of test compound 10 μg/mL). 2.5 μL of DMSO diluted 10-fold with medium A was added to the control well instead of the compound solution. After culturing at 37° C. in a 5% CO2 stream for 24 hr, the cell survival rate was measured using WST-1 (DOJINDO LABORATORIES) or WST-8 kit (KISHIDA CHEMICAL Co., Ltd.) and according to each instruction manual attached thereto.

With `O=C1CCC(n2cc(-c3cscc3Br)nn2)C(=O)N1` (stereo not drawn) [compound 1, 3-[4-(4-bromothiophen-3-yl)-1H-1,2,3-triazol-1-yl]piperidine-2,6-dione] the viability at 10 µM [1] was 89%, the viability at 10 µM [2] was 43% and the “cell survival rate (% of control) PBMC” value [3] was 106 % of control.
For `O=C1CCC(n2cc(-c3ccsc3)nn2)C(=O)N1` (stereo not drawn) [compound 2, 3-[4-(thiophen-3-yl)-1H-1,2,3-triazol-1-yl]piperidine-2,6-dione], the viability at 10 µM [1] was 80%, the viability at 10 µM [2] was 36% and the “cell survival rate (% of control) PBMC” value [3] was 100 % of control.
For `O=C1CCC(n2cc(-c3cccs3)nn2)C(=O)N1` (stereo not drawn) [compound 3, 3-[4-(thiophen-2-yl)-1H-1,2,3-triazol-1-yl]piperidine-2,6-dione], the viability at 10 µM [1] was 96%, the viability at 10 µM [2] was 65% and the “cell survival rate (% of control) PBMC” value [3] was 89 % of control.
In the case of `O=C1CCC(n2nnc(-c3ccsc3)c2Cl)C(=O)N1` (stereo not drawn) [compound 4, 3-[5-chloro-4-(thiophen-3-yl)-1H-1,2,3-triazol-1-yl]piperidine-2,6-dione], the viability at 10 µM [1] is reported as 98%, the viability at 10 µM [2] is reported as 93% and the “cell survival rate (% of control) PBMC” value [3] is reported as 112 % of control.
For `Cc1ccc(-c2cn(C3CCC(=O)NC3=O)nn2)s1` (stereo not drawn) [compound 5, 3-[4-(5-methylthiophen-2-yl)-1H-1,2,3-triazol-1-yl]piperidine-2,6-dione], the viability at 10 µM [1] was 98%, the viability at 10 µM [2] was 53% and the “cell survival rate (% of control) PBMC” value [3] was 97 % of control.
With `Cc1cc(-c2cn(C3CCC(=O)NC3=O)nn2)cs1` (stereo not drawn) [compound 6, 3-[4-(5-methylthiophen-3-yl)-1H-1,2,3-triazol-1-yl]piperidine-2,6-dione] the viability at 10 µM [1] was 100%, the viability at 10 µM [2] was 52% and the “cell survival rate (% of control) PBMC” value [3] was 96 % of control.
`Cc1cscc1-c1cn(C2CCC(=O)NC2=O)nn1` (stereo not drawn) [compound 7, 3-[4-(4-methylthiophen-3-yl)-1H-1,2,3-triazol-1-yl]piperidine-2,6-dione] was tested, and the viability at 10 µM [1] was 101%, the viability at 10 µM [2] was 44% and the “cell survival rate (% of control) PBMC” value [3] was 101 % of control.
In the case of `CC(=O)c1ccc(-c2cn(C3CCC(=O)NC3=O)nn2)s1` (stereo not drawn) [compound 8, 3-[4-(5-acetylthiophen-2-yl)-1H-1,2,3-triazol-1-yl]piperidine-2,6-dione], the viability at 10 µM [1] is reported as 107%, the viability at 10 µM [2] is reported as 99% and the “cell survival rate (% of control) PBMC” value [3] is reported as 97 % of control.
With `O=C1CCC(n2cc(-c3csc(CO)c3)nn2)C(=O)N1` (stereo not drawn) [compound 9, 3-{4-[5-(hydroxymethyl)thiophen-3-yl]-1H-1,2,3-triazol-1-yl}piperidine-2,6-dione] the viability at 10 µM [1] was 100%, the viability at 10 µM [2] was 70% and the “cell survival rate (% of control) PBMC” value [3] was 129 % of control.
`O=C1CCC(n2cc(-c3scc4c3OCCO4)nn2)C(=O)N1` (stereo not drawn) [compound 10, 3-[4-(2,3-dihydrothieno[3,4-b][1,4]dioxin-5-yl)-1H-1,2,3-triazol-1-yl]piperidine-2,6-dione] was tested, and the viability at 10 µM [1] was 113%, the viability at 10 µM [2] was 57% and the “cell survival rate (% of control) PBMC” value [3] was 97 % of control.
With `O=C1CCC(n2cc(-c3ccc(Cl)s3)nn2)C(=O)N1` (stereo not drawn) [compound 11, 3-[4-(5-chlorothiophen-2-yl)-1H-1,2,3-triazol-1-yl]piperidine-2,6-dione] the viability at 10 µM [1] was 114%, the viability at 10 µM [2] was 56% and the “cell survival rate (% of control) PBMC” value [3] was 115 % of control.
`O=C1CCC(n2cc(-c3ccc(Br)s3)nn2)C(=O)N1` (stereo not drawn) [compound 12, 3-[4-(5-bromothiophen-2-yl)-1H-1,2,3-triazol-1-yl]piperidine-2,6-dione] was tested, and the viability at 10 µM [1] was 94%, the viability at 10 µM [2] was 77% and the “cell survival rate (% of control) PBMC” value [3] was 101 % of control.
For `O=C1CCC(n2cc(-c3cc(Br)sc3Br)nn2)C(=O)N1` (stereo not drawn) [compound 13, 3-[4-(2,5-dibromothiophen-3-yl)-1H-1,2,3-triazol-1-yl]piperidine-2,6-dione], the viability at 10 µM [1] was 100%, the viability at 10 µM [2] was 100% and the “cell survival rate (% of control) PBMC” value [3] was 132 % of control.
In the case of `O=C1CCC(n2cc(-c3cscc3Cl)nn2)C(=O)N1` (stereo not drawn) [compound 14, 3-[4-(4-chlorothiophen-3-yl)-1H-1,2,3-triazol-1-yl]piperidine-2,6-dione], the viability at 10 µM [1] is reported as 74%, the viability at 10 µM [2] is reported as 34% and the “cell survival rate (% of control) PBMC” value [3] is reported as 113 % of control.
In the case of `COc1c(-c2cn(C3CCC(=O)NC3=O)nn2)csc1C` (stereo not drawn) [compound 15, 3-[4-(4-methoxy-5-methylthiophen-3-yl)-1H-1,2,3-triazol-1-yl]piperidine-2,6-dione], the viability at 10 µM [1] is reported as 87%, the viability at 10 µM [2] is reported as 36% and the “cell survival rate (% of control) PBMC” value [3] is reported as 105 % of control.
`COC(=O)c1scc(-c2cn(C3CCC(=O)NC3=O)nn2)c1OC` (stereo not drawn) [compound 16, methyl 4-[1-(2,6-dioxopiperidin-3-yl)-1H-1,2,3-triazol-4-yl]-3-methoxythiophene-2-carboxylate] was tested, and the viability at 10 µM [1] was 98%, the viability at 10 µM [2] was 85% and the “cell survival rate (% of control) PBMC” value [3] was 90 % of control.
`CCOc1cscc1-c1cn(C2CCC(=O)NC2=O)nn1` (stereo not drawn) [compound 17, 3-[4-(4-ethoxythiophen-3-yl)-1H-1,2,3-triazol-1-yl]piperidine-2,6-dione] was tested, and the viability at 10 µM [1] was 72%, the viability at 10 µM [2] was 23% and the “cell survival rate (% of control) PBMC” value [3] was 49 % of control.
With `COc1sccc1-c1cn(C2CCC(=O)NC2=O)nn1` (stereo not drawn) [compound 18, 3-[4-(2-methoxythiophen-3-yl)-1H-1,2,3-triazol-1-yl]piperidine-2,6-dione] the viability at 10 µM [1] was 70%, the viability at 10 µM [2] was 18% and the “cell survival rate (% of control) PBMC” value [3] was 53 % of control.
With `COc1cscc1-c1cn(C2CCC(=O)NC2=O)nn1` (stereo not drawn) [compound 19, 3-[4-(4-methoxythiophen-3-yl)-1H-1,2,3-triazol-1-yl]piperidine-2,6-dione] the viability at 10 µM [1] was 11%, the viability at 10 µM [2] was 4% and the “cell survival rate (% of control) PBMC” value [3] was 99 % of control.
For `COc1cc(-c2cn(C3CCC(=O)NC3=O)nn2)cs1` (stereo not drawn) [compound 20, 3-[4-(5-methoxythiophen-3-yl)-1H-1,2,3-triazol-1-yl]piperidine-2,6-dione], the viability at 10 µM [1] was 81%, the viability at 10 µM [2] was 22% and the “cell survival rate (% of control) PBMC” value [3] was 104 % of control.
`CCCOc1cscc1-c1cn(C2CCC(=O)NC2=O)nn1` (stereo not drawn) [compound 21, 3-[4-(4-propoxythiophen-3-yl)-1H-1,2,3-triazol-1-yl]piperidine-2,6-dione] was tested, and the viability at 10 µM [1] was 106%, the viability at 10 µM [2] was 63% and the “cell survival rate (% of control) PBMC” value [3] was 116 % of control.
With `COc1c(-c2cn(C3CCC(=O)NC3=O)nn2)csc1Cl` (stereo not drawn) [compound 22, 3-[4-(5-chloro-4-methoxythiophen-3-yl)-1H-1,2,3-triazol-1-yl]piperidine-2,6-dione] the viability at 10 µM [1] was 97%, the viability at 10 µM [2] was 65% and the “cell survival rate (% of control) PBMC” value [3] was 132 % of control.
